Test system: hiPSC clone FTi111
Assay: Post-thaw recovery of hiPSC clone in various culture environments
Assay type: cell-based, human
Conditions: conventional culture with feeder cells

## O=C(NCc1ccccc1)c1csc(Nc2ccncn2)n1 [Thiazovivin]
  recovery of hiPSC colonies after thaw: only recovered in the presence of Thiazovivin
